Legend:
[1] = molecular target: T1, Muscarinic acetylcholine receptor M5 (Homo sapiens, UniProt P08912)
T1 sequence (P08912 whole entry): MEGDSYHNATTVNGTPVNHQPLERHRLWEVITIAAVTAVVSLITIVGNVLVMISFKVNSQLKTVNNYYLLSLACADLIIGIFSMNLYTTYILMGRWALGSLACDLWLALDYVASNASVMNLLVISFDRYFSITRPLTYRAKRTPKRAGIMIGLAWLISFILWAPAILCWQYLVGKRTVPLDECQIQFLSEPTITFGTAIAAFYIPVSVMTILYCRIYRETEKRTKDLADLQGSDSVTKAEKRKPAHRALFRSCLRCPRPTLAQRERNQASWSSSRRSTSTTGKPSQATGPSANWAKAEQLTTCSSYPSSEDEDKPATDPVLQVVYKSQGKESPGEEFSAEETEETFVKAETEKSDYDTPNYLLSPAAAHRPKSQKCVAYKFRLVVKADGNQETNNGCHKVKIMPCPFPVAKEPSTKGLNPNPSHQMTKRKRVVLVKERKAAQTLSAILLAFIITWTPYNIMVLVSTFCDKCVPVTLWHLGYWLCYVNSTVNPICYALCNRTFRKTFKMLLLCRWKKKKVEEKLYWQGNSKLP

Substance-K receptor = molecular target: T2, Substance-K receptor (Homo sapiens, UniProt P21452)
T2 sequence (P21452 whole entry): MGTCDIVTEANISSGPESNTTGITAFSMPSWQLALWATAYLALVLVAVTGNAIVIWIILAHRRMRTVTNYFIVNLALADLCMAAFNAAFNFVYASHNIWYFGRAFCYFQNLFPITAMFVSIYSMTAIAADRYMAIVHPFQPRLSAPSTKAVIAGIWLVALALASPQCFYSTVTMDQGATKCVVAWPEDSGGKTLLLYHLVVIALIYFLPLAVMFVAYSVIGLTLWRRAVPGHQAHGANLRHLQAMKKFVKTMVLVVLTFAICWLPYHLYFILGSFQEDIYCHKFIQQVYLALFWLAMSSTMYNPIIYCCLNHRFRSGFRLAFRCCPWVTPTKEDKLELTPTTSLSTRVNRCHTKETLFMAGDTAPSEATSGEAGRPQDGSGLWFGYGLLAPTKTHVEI

Androgen receptor [2] = molecular target: T3, Androgen receptor (Rattus norvegicus, UniProt P15207); format: functional
T3 sequence (P15207 whole entry): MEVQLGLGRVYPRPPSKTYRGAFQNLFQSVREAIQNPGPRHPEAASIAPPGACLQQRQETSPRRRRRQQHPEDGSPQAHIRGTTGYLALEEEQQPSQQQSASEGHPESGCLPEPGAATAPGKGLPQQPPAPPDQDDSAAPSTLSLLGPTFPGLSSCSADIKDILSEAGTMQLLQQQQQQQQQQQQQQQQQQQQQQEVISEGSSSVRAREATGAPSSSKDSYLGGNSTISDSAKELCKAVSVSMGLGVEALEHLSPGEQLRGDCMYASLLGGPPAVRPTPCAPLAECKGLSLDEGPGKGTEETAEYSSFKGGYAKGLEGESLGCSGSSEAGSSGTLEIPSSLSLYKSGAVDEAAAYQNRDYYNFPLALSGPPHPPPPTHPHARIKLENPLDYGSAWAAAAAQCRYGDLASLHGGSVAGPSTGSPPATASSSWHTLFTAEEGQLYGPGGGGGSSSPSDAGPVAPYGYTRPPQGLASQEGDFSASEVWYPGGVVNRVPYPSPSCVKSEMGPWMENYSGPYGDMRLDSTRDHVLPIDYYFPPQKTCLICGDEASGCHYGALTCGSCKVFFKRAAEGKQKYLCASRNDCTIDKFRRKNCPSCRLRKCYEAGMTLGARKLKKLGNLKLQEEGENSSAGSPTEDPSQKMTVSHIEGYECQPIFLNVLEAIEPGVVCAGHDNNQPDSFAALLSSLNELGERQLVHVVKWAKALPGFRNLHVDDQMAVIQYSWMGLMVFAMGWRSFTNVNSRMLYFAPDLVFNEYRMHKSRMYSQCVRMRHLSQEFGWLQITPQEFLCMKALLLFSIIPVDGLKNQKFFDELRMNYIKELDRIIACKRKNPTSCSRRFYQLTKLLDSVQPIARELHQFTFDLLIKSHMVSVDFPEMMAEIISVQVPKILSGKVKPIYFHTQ

Androgen receptor [3] = molecular target: T3, Androgen receptor; format: functional; remark: listed apart in the source
Substance-P receptor = Substance-P receptor (Homo sapiens, UniProt P25103)
[4] = molecular target: Sodium channel protein type 5 subunit alpha (Homo sapiens, UniProt Q14524); format: functional, cell-based
[5] = molecular target: 5-hydroxytryptamine receptor 5A (Homo sapiens, UniProt P47898)
[6] = molecular target: Voltage-dependent L-type calcium channel subunit alpha-1C (Homo sapiens, UniProt Q13936); format: functional, cell-based
[7] = molecular target: Synaptic vesicular amine transporter (Rattus norvegicus, UniProt Q01827); format: functional
[8] = molecular target: T4, Peroxisome proliferator-activated receptor alpha (Homo sapiens, UniProt Q07869); format: functional
T4 sequence (Q07869 whole entry): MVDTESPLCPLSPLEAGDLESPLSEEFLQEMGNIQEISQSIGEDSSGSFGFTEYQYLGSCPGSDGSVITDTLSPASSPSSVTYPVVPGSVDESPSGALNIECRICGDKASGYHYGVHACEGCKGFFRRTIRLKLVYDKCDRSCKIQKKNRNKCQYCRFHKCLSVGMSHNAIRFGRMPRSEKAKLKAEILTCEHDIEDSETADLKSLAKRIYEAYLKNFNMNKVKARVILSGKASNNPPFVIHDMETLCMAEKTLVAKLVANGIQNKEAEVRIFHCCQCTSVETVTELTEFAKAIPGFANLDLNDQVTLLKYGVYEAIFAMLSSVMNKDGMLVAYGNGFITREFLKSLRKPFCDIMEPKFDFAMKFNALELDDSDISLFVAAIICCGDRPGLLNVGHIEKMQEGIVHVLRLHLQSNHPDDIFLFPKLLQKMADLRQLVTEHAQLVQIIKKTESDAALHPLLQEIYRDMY

D(1A) dopamine receptor = D(1A) dopamine receptor (Homo sapiens, UniProt P21728); format: functional, cell-based
[9] = molecular target: Receptor tyrosine-protein kinase erbB-2 (Homo sapiens, UniProt P04626); format: functional
[10] = molecular target: Vascular endothelial growth factor receptor 2 (Homo sapiens, UniProt P35968); format: functional
Further: assay procedure not described here.

Substance-P receptor, sequence (P25103 whole entry): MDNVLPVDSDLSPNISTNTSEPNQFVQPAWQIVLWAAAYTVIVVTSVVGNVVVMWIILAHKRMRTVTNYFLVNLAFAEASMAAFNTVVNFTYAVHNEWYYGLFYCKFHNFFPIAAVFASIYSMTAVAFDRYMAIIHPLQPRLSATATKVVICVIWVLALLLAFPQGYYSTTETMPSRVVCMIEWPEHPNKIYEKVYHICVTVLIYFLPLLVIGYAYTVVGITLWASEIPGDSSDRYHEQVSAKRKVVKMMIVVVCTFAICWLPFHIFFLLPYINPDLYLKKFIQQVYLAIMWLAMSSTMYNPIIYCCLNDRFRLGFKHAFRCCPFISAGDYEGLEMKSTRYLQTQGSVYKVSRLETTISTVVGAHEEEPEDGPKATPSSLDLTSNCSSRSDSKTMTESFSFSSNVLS
D(1A) dopamine receptor, sequence (P21728 whole entry): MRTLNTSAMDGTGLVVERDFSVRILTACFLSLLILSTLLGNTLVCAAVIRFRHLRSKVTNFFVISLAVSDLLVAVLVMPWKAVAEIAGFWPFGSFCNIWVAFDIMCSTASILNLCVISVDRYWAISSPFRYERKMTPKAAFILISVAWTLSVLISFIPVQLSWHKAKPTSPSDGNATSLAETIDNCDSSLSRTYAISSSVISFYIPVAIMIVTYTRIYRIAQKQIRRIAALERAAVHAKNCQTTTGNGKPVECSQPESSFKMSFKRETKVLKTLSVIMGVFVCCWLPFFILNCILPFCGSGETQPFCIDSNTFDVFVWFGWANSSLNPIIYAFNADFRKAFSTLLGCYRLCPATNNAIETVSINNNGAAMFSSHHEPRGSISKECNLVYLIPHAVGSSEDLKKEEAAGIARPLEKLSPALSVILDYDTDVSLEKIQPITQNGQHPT
Sodium channel protein type 5 subunit alpha, sequence (Q14524 whole entry): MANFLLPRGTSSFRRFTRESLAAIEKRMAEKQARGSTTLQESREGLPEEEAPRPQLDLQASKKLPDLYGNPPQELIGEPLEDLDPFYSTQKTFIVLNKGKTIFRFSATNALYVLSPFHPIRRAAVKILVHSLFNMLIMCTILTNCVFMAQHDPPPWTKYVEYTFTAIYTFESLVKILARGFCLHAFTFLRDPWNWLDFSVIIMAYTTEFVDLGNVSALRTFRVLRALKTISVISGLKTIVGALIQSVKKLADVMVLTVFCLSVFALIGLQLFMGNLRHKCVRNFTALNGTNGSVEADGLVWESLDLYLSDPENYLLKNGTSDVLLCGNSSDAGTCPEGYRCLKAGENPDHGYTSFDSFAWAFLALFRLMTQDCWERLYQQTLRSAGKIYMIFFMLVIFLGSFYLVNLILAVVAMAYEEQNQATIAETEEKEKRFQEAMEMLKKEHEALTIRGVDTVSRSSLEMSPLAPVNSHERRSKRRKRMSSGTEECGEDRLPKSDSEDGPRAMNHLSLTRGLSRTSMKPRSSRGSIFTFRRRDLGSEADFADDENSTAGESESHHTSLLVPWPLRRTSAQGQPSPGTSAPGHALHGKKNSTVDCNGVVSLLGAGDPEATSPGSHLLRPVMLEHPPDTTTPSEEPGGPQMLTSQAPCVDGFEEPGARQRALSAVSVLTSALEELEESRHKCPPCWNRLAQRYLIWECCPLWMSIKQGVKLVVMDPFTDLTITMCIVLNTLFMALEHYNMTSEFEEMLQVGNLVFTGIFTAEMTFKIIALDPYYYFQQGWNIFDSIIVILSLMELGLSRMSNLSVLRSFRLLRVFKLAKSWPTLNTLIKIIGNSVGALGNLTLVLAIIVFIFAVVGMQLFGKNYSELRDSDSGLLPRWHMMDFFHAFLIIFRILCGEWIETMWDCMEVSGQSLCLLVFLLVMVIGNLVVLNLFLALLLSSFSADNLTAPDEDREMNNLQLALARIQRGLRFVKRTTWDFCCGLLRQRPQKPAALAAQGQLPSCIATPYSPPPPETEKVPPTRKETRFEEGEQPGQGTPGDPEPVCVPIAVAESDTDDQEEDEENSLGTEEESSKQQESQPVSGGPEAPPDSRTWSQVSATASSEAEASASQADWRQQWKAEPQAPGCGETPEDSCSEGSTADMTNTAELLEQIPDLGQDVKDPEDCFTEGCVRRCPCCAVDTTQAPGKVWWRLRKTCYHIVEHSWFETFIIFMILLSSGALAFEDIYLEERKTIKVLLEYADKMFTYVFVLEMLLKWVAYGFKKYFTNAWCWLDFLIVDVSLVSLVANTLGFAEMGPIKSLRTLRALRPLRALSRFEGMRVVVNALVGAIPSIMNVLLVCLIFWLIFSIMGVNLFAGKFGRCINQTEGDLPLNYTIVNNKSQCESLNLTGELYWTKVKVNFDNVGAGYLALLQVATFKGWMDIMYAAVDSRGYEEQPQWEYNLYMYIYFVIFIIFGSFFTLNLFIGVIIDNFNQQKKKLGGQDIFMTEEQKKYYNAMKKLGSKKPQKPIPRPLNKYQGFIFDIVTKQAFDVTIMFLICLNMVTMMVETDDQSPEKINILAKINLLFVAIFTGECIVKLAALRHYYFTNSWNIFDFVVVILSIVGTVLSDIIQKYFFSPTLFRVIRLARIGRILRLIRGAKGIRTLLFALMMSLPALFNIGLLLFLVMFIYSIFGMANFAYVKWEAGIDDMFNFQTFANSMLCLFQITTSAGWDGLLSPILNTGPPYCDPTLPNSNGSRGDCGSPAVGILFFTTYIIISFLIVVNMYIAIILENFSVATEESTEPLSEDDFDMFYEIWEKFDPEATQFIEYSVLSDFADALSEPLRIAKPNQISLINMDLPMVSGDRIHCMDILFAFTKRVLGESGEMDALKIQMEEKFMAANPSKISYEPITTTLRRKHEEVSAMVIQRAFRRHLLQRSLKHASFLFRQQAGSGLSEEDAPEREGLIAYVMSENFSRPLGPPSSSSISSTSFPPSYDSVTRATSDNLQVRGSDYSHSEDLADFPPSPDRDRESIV
Voltage-dependent L-type calcium channel subunit alpha-1C, sequence (Q13936 whole entry): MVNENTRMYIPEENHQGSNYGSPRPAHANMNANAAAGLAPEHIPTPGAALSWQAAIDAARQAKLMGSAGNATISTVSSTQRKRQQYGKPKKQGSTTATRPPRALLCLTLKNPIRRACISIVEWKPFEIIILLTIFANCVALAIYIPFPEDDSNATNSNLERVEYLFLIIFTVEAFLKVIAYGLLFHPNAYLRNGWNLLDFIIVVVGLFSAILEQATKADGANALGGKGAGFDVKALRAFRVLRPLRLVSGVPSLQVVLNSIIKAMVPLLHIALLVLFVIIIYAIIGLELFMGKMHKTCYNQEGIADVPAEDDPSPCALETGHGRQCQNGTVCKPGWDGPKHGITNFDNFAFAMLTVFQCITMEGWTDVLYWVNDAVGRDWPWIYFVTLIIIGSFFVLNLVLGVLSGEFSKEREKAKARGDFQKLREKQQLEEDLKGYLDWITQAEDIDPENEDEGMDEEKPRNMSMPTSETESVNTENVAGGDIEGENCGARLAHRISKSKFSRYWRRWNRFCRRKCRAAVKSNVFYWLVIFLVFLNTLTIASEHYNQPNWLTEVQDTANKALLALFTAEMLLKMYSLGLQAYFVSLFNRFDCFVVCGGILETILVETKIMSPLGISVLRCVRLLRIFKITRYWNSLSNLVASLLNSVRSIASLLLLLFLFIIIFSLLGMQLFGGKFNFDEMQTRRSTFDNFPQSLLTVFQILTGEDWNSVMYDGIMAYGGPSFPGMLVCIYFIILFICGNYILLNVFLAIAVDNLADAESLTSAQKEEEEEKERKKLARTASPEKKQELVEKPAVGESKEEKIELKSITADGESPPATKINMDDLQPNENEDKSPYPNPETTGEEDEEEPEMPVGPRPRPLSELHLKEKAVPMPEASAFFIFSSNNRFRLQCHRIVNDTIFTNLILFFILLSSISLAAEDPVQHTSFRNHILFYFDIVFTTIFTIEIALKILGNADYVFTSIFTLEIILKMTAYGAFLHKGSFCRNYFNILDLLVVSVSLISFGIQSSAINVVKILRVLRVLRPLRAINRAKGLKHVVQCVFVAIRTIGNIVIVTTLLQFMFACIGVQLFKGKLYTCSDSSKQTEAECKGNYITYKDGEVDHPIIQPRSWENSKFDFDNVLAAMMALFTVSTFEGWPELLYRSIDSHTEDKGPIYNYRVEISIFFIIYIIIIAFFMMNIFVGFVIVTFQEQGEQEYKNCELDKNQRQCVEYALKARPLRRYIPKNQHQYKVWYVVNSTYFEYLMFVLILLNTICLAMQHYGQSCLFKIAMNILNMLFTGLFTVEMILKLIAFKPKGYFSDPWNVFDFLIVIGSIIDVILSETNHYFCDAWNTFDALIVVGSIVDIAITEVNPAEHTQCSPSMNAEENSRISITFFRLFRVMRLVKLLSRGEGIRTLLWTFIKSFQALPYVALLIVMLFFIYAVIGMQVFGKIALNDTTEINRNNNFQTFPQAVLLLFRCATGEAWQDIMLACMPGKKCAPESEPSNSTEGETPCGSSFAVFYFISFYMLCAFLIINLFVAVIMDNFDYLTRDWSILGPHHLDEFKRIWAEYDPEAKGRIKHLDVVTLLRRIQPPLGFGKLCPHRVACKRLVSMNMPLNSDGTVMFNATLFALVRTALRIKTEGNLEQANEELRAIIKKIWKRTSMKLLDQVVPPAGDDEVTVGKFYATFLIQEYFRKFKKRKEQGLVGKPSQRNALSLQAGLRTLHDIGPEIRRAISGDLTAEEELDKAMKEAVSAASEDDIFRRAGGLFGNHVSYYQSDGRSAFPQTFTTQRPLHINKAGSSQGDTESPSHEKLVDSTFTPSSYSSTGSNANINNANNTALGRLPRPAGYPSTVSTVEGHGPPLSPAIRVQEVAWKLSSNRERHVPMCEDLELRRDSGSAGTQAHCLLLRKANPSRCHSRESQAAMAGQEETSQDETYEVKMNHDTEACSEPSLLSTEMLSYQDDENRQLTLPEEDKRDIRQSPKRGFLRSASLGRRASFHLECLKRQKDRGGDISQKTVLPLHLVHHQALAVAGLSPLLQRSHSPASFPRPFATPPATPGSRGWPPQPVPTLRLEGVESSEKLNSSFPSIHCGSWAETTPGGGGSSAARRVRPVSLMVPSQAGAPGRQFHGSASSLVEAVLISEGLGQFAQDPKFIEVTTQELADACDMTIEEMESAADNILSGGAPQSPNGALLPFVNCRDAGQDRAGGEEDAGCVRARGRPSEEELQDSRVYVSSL

SMILES: CCCN(CCC)C(=O)Cc1c(-c2ccc(Cl)cc2)nc2ccc(Cl)cn12 [ALPIDEM]
- AC50 [1]: > 10 µM
- AC50 (Substance-K receptor): > 10 µM

SMILES: CC(=O)O[C@]1(C(C)=O)CC[C@H]2[C@@H]3C=C(C)C4=CC(=O)CC[C@@H]4[C@H]3CC[C@@]21C [NOMEGESTROL ACETATE]
- AC50 (Androgen receptor [2]): > 30 µM
- AC50 (Androgen receptor [3]): > 30 µM

SMILES: CCCC(CCC)C(=O)O [VALPROIC ACID]
- AC50 (Substance-P receptor): > 10 µM
- AC50 [1]: > 10 µM
- AC50 (Substance-K receptor): > 10 µM

SMILES: N[C@@H](CC(=O)N1CCn2c(nnc2C(F)(F)F)C1)Cc1cc(F)c(F)cc1F [SITAGLIPTIN]
- AC50 (Substance-P receptor): > 10 µM
- AC50 [4]: > 150 µM
- AC50 (Androgen receptor [2]): > 30 µM
- AC50 [5]: > 10 µM
- AC50 [1]: > 10 µM
- AC50 (Substance-K receptor): > 10 µM
- AC50 [6]: > 50 µM

SMILES: OC[C@H]1O[C@@H](c2ccc(Cl)c(Cc3ccc(O[C@H]4CCOC4)cc3)c2)[C@H](O)[C@@H](O)[C@@H]1O [EMPAGLIFLOZIN]
- AC50 [4]: > 50 µM
- AC50 [7]: 16 µM

SMILES: CC(C(=O)O)c1ccc2c(c1)[nH]c1ccc(Cl)cc12 (stereo not drawn) [CARPROFEN]
- AC50 [8]: > 30 µM

SMILES: CC(C)C[C@H](NC(=O)CNC(=O)c1cc(Cl)ccc1Cl)B(O)O [IXAZOMIB]
- AC50 [7]: > 30 µM

SMILES: CN(C)CCc1c[nH]c2ccc(Cn3cncn3)cc12 [RIZATRIPTAN]
- AC50 (Substance-P receptor): > 10 µM
- AC50 [4]: > 30 µM
- AC50 [1]: > 10 µM

SMILES: COc1cc2nccc(Oc3ccc(NC(=O)C4(C(=O)Nc5ccc(F)cc5)CC4)cc3)c2cc1OC [CABOZANTINIB]
- AC50 [4]: > 3 µM
- AC50 (Androgen receptor [2]): > 30 µM
- AC50 (D(1A) dopamine receptor): 13 µM
- AC50 [9]: 6.2 µM

SMILES: COc1ccc(CC2c3cc(OC)c(OC)cc3CC[N+]2(C)CCC(=O)OCCCCCOC(=O)CC[N+]2(C)CCc3cc(OC)c(OC)cc3C2Cc2ccc(OC)c(OC)c2)cc1OC (stereo not drawn)
- AC50 (Androgen receptor [2]): > 30 µM
- AC50 (Androgen receptor [3]): > 30 µM

SMILES: CCN1CCN(Cc2ccc(Nc3ncc(F)c(-c4cc(F)c5nc(C)n(C(C)C)c5c4)n3)nc2)CC1 [ABEMACICLIB]
- AC50 [4]: > 50 µM
- AC50 (Androgen receptor [2]): > 30 µM
- AC50 (D(1A) dopamine receptor): > 30 µM
- AC50 [9]: > 30 µM
- AC50 [10]: 14 µM

SMILES: COc1ccccc1Oc1c(NS(=O)(=O)c2ccc(C(C)(C)C)cc2)nc(-c2ncccn2)nc1OCCO [BOSENTAN]
- AC50 [8]: > 30 µM

SMILES: COc1cc2nc(N3CCN(C(=O)C4CCCO4)CC3)nc(N)c2cc1OC (stereo not drawn) [TERAZOSIN]
- AC50 (Substance-P receptor): > 10 µM

SMILES: O=C1CN(/N=C/c2ccc(-c3ccc([N+](=O)[O-])cc3)o2)C(O)=N1 [DANTROLENE]
- AC50 [4]: > 50 µM

SMILES: C[C@@H](Oc1cc(-c2cnn(C3CCNCC3)c2)cnc1N)c1c(Cl)ccc(F)c1Cl [CRIZOTINIB]
- AC50 (Androgen receptor [2]): > 30 µM
- AC50 (D(1A) dopamine receptor): > 30 µM
- AC50 [6]: > 30 µM

From ChEMBL document CHEMBL5291721, “A preclinical secondary pharmacology resource illuminates target-adverse drug reaction associations of marketed drugs” (Nat Commun, 2023)
